Measurements published in US20230416330A1, “Optimized GIP Peptide Analogues” (Antag Therapeutics ApS, priority 2019, published 2023).
Starred links: 1 amine or outer side, 2 acyl side, 3 side chain; linkers in the order of their positions; H or OH if unused. Non-standard residues stand in square brackets, D forms with d. Residues, ends and D or L forms follow the SMILES beside them. Groups on a side chain read outwards from the residue. *: point of attachment. C18 diacid = O=C(O)CCCCCCCCCCCCCCCCC(=O)*; C16 diacid = O=C(O)CCCCCCCCCCCCCCC(=O)*; γGlu = O=C(O)[C@H](CCC(=O)[*:2])N[*:1]; Glutaryl = O=C(CCCC(=O)[*:2])[*:1]; Nle = CCCC[C@H](N)C(=O)O; AEEA = NCCOCCOCC(=O)O; Aib = CC(C)(N)C(=O)O

Assays:
[1] = Solubility by visual inspection of peptide solutions; format: physicochemical; conditions: 1 mg/ml
Procedure, shortened: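 Solubility scored by eye: clear, colorless appearance after gentle mixing. Samples prepared at 1, 5, 7.5 or 15 mg/ml in either pH 7.4 water (NaOH-adjusted) or 50 mM sodium phosphate buffer, pH 7.4.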

[2] = Physical stability: fibril formation in Thioflavin T (ThT) assay with agitation; format: physicochemical; conditions: 25° C., agitation; for Avr lag time: TFA
Procedure, shortened: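 Read-out is continuous ThT fluorescence at 486 nm, with lag time taken where signal reaches 10% between pre- and post-transition baselines. Filtered samples (1, 5, 7.5 or 15 mg/ml; pH 7.4 phosphate buffer or NaOH-adjusted water) were stressed at 25° C. by orbital rotation at 300 rpm with one silica bead per well.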

human GIP receptor = molecular target: T1, human GIP receptor (Homo sapiens, UniProt P48546); experiment: cAMP assay Alternative 1 (CisBio assay), GIPR antagonism; format: cell-based; conditions: for cAMP antagonism % inhib: Table 2B, % inhibition of Emax
T1 construct: host or cells: HEK-293 cells, transient transfection (Lipofectamine 2000), cDNA in pCMV-Script vector
T1 sequence (P48546 22-466): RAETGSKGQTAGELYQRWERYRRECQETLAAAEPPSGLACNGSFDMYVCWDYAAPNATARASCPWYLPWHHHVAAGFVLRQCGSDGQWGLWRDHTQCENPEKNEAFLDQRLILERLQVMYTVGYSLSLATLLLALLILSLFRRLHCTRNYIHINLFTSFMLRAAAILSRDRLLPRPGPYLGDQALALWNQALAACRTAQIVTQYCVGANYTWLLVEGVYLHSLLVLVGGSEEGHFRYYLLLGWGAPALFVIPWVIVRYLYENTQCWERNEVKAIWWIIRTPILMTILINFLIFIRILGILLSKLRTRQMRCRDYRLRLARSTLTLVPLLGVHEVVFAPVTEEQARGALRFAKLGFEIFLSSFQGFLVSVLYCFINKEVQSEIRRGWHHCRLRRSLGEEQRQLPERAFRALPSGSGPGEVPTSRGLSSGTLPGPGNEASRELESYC
Description: HEK293 cells were cultured in 10% CO2 and 37° C. in Dulbecco's modified Eagle's medium supplemented with 10% fetal bovine serum, 2 mM glutamine, 180 units/ml penicillin, and 45 µg/ml streptomycin. Transient transfection with hGIPR for the CisBio assay from Table 2C was performed by using Lipofectamine 2000.
The in vitro functional activity of compounds towards human GIP receptor can also be determined in HEK-293 cells transiently expressing the receptor. On the day of the assay, cells were resuspended in HBSS buffer (Gibco, 14025-50) supplemented with […] (Gibco, 15630-106), 0.1% Pluronic F-68 (Gibco, 24040-032) and 0.1% casein (Sigma, C4765), and plated in 384-well plates at a density of 5000 cells/well. The GIP peptide analogues of the present disclosure were diluted in HBSS buffer supplemented with 20 mM HEPES, 0.1% pluronic, 0.1% casein and 500 uM IBMX. […] The resulting decrease in intracellular cAMP was quantitatively determined using the CisBio cAMP Dynamic 2 HTRF Assay Kit. The assay is based on a competition between native cAMP produced by cells and cAMP labeled with the dye d2 for binding to a cryptate labeled antibody. The specific signal (i.e. energy transfer signal) is inversely proportional to the concentration of cAMP in the sample.
The cAMP-d2 conjugate and the antibody anti-cAMP-Cryptate, both diluted in lysis buffer provided in the kit, were added to the cells according to the manufacturer's protocol. The resulting competitive assay was incubated for 60 minutes at room temperature, and the signal was detected by using a PerkinElmer Envision® instrument with excitation at 320 nm and emission at 665 nm and 620 nm. The HTRF ratio (emission at 665 nm/620 nm*10,000) is inversely proportional to the amount of cAMP present and is converted to nM cAMP per well using a cAMP standard curve. The dose-response curves were fitted using the non-linear regression analysis (four-logistic parameter equation) in GraphPad Prism, whereby pIC50 values were estimated. To test for agonistic properties at the GIP receptor, compounds were diluted and added to cells as described above and incubated for 30 min at 37° C. The resulting increase in intracellular cAMP was determined using the CisBio cAMP Dynamic 2 HTRF Assay Kit as described above.
The dose-response curves were fitted using the non-linear regression analysis (four-logistic parameter equation) in GraphPad Prism, whereby pIC50 values were estimated.

CC[C@H](C)[C@H](NC(=O)[C@H](CO)NC(=O)[C@H](Cc1ccc(O)cc1)NC(=O)[C@H](CC(=O)O)NC(=O)[C@H](CO)NC(=O)[C@@H](NC(=O)[C@H](Cc1ccccc1)NC(=O)[C@@H](NC(=O)CNC(=O)[C@@H](N)CCC(=O)O)[C@@H](C)O)[C@@H](C)CC)C(=O)N[C@@H](C)C(=O)N[C@@H](CCSC)C(=O)N[C@@H](CC(=O)O)C(=O)N[C@@H](CCCCN)C(=O)N[C@H](C(=O)N[C@@H](CCCCNC(=O)CCCCCCCCCCCCCCC(=O)O)C(=O)N[C@@H](CCC(N)=O)C(=O)N[C@@H](CCC(N)=O)C(=O)N[C@@H](CC(=O)O)C(=O)N[C@@H](Cc1ccccc1)C(=O)N[C@H](C(=O)N[C@@H](CC(N)=O)C(=O)N[C@@H](Cc1c[nH]c2ccccc12)C(=O)N[C@@H](CC(C)C)C(=O)N[C@@H](CC(C)C)C(=O)N[C@@H](C)C(=O)N[C@@H](CCC(N)=O)C(=O)N[C@@H](CCCCN)C(N)=O)C(C)C)[C@@H](C)CC [AT158, reference compound] (H-EGTFISDYSIAMDKIK(C16 diacid)QQDFVNWLLAQK-NH2; N-terminus assumed)
Visual appearance ([1]; CI, MilliQ (7.9)): Turbid and Hazy | Avr lag time ([2]; 1 mg/ml, Phosphate (7.4)): <18 h | Avr lag time ([2]; 5 mg/ml, MilliQ): <18 h | cAMP antagonism pIC50 (human GIP receptor; Table 2A, HEK-293 cells transiently expressing hGIPR, agonist GIP1-42 at EC50): 7.8

CC[C@H](C)[C@H](NC(=O)[C@H](CCCCN)NC(=O)[C@H](CCC(=O)O)NC(=O)[C@H](CCSC)NC(=O)C(C)(C)NC(=O)[C@@H](NC(=O)[C@H](CO)NC(=O)[C@H](Cc1ccc(O)cc1)NC(=O)[C@H](CCC(=O)O)NC(=O)[C@H](CO)NC(=O)[C@@H](NC(=O)[C@H](Cc1ccccc1)NC(=O)[C@@H](NC(=O)CNC(=O)[C@@H](N)CCC(=O)O)[C@@H](C)O)[C@@H](C)CC)[C@@H](C)CC)C(=O)N[C@@H](CCCCNC(=O)CCCCCCCCCCCCCCC(=O)O)C(=O)N[C@@H](CCC(N)=O)C(=O)N[C@@H](CCC(N)=O)C(=O)N[C@@H](CC(=O)O)C(=O)N[C@@H](Cc1ccccc1)C(=O)N[C@H](C(=O)N[C@@H](CCC(=O)O)C(=O)N[C@@H](Cc1c[nH]c2ccccc12)C(=O)N[C@@H](CC(C)C)C(=O)N[C@@H](CC(C)C)C(=O)N[C@@H](C)C(=O)N[C@@H](CCC(N)=O)C(=O)N[C@@H](CCCCN)C(=O)N1CCC[C@H]1C(=O)N[C@@H](CO)C(=O)N[C@@H](CO)C(=O)NCC(=O)N[C@@H](C)C(=O)N1CCC[C@H]1C(=O)N1CCC[C@H]1C(=O)N1CCC[C@H]1C(=O)N[C@@H](CO)C(=O)O)C(C)C [AT616] (H-EGTFISEYSI[Aib]MEKIK(C16 diacid)QQDFVEWLLAQKPSSGAPPPS-OH; N-terminus assumed)
Visual appearance ([1]; Na, MilliQ (7.7)): Clear | Avr lag time (h) ([2]; 1 mg/ml, Na, MilliQ (7.7)): fnd (Fnd = fibrils not detected within experiment time (96 hours) with agitation.) | cAMP antagonism % inhib (human GIP receptor): 100%

CCCC[C@H](NC(=O)C(C)(C)NC(=O)[C@@H](NC(=O)[C@H](CO)NC(=O)[C@H](Cc1ccc(O)cc1)NC(=O)[C@H](CC(=O)O)NC(=O)[C@H](CO)NC(=O)[C@@H](NC(=O)[C@H](Cc1ccccc1)NC(=O)[C@@H](NC(=O)CNC(=O)[C@@H](N)CCC(=O)O)[C@@H](C)O)[C@@H](C)CC)[C@@H](C)CC)C(=O)N[C@@H](CC(=O)O)C(=O)N[C@@H](CCCCN)C(=O)N[C@H](C(=O)N[C@@H](CCCCNC(=O)COCCOCCNC(=O)COCCOCCNC(=O)CC[C@H](NC(=O)CCCCCCCCCCCCCCCCC(=O)O)C(=O)O)C(=O)N[C@@H](CCC(N)=O)C(=O)N[C@@H](CCC(N)=O)C(=O)N[C@@H](CC(=O)O)C(=O)N[C@@H](Cc1ccccc1)C(=O)N[C@H](C(=O)N[C@@H](CCC(=O)O)C(=O)N[C@@H](Cc1c[nH]c2ccccc12)C(=O)N[C@@H](CC(C)C)C(=O)N[C@@H](CC(C)C)C(=O)N[C@@H](C)C(=O)N[C@@H](CCC(N)=O)C(=O)N[C@@H](CCCCN)C(=O)N1CCC[C@H]1C(=O)N[C@@H](CO)C(=O)N[C@@H](CO)C(=O)NCC(=O)N[C@@H](C)C(=O)N1CCC[C@H]1C(=O)N1CCC[C@H]1C(=O)N1CCC[C@H]1C(=O)N[C@@H](CO)C(=O)O)C(C)C)[C@@H](C)CC [AT686] (H-EGTFISDYSI[Aib][Nle]DKIK([AEEA-AEEA-γGlu-C18 diacid])QQDFVEWLLAQKPSSGAPPPS-OH; N-terminus assumed)
cAMP antagonism % inhib (human GIP receptor): 82%

CCCC[C@H](NC(=O)[C@H](C)NC(=O)[C@@H](NC(=O)[C@H](CO)NC(=O)[C@H](Cc1ccc(O)cc1)NC(=O)[C@H](CC(=O)O)NC(=O)[C@H](CO)NC(=O)[C@@H](NC(=O)[C@H](Cc1ccccc1)NC(=O)[C@@H](NC(=O)CNC(=O)CCCC(=O)O)[C@@H](C)O)[C@@H](C)CC)[C@@H](C)CC)C(=O)N[C@@H](CC(=O)O)C(=O)N[C@@H](CCCCN)C(=O)N[C@H](C(=O)N[C@@H](CCCCNC(=O)CCCCCCCCCCCCCCC(=O)O)C(=O)N[C@@H](CCC(N)=O)C(=O)N[C@@H](CCC(N)=O)C(=O)N[C@@H](CC(=O)O)C(=O)N[C@@H](Cc1ccccc1)C(=O)N[C@H](C(=O)N[C@@H](CCC(=O)O)C(=O)N[C@@H](Cc1c[nH]c2ccccc12)C(=O)N[C@@H](CC(C)C)C(=O)N[C@@H](CC(C)C)C(=O)N[C@@H](C)C(=O)N[C@@H](CCC(N)=O)C(=O)N[C@@H](CCCCN)C(=O)N1CCC[C@H]1C(=O)N[C@@H](CO)C(=O)N[C@@H](CO)C(=O)NCC(=O)N[C@@H](C)C(=O)N1CCC[C@H]1C(=O)N1CCC[C@H]1C(=O)N1CCC[C@H]1C(=O)N[C@@H](CO)C(=O)O)C(C)C)[C@@H](C)CC [AT700] (Glutaryl-GTFISDYSIA[Nle]DKIK(C16 diacid)QQDFVEWLLAQKPSSGAPPPS-OH)
cAMP antagonism % inhib (human GIP receptor): 89%

CCCC[C@H](NC(=O)[C@H](C)NC(=O)[C@@H](NC(=O)[C@H](CO)NC(=O)[C@H](Cc1ccc(O)cc1)NC(=O)[C@H](CC(=O)O)NC(=O)[C@H](CO)NC(=O)[C@@H](NC(=O)[C@H](Cc1ccccc1)NC(=O)[C@@H](NC(=O)CNC(=O)CCCC(=O)O)[C@@H](C)O)[C@@H](C)CC)[C@@H](C)CC)C(=O)N[C@@H](CC(=O)O)C(=O)N[C@@H](CCCCN)C(=O)N[C@H](C(=O)N[C@@H](CCCCNC(=O)COCCOCCNC(=O)COCCOCCNC(=O)CC[C@H](NC(=O)CCCCCCCCCCCCCCCCC(=O)O)C(=O)O)C(=O)N[C@@H](CCC(N)=O)C(=O)N[C@@H](CCC(N)=O)C(=O)N[C@@H](CC(=O)O)C(=O)N[C@@H](Cc1ccccc1)C(=O)N[C@H](C(=O)N[C@@H](CCC(=O)O)C(=O)N[C@@H](Cc1c[nH]c2ccccc12)C(=O)N[C@@H](CC(C)C)C(=O)N[C@@H](CC(C)C)C(=O)N[C@@H](C)C(=O)N[C@@H](CCC(N)=O)C(=O)N[C@@H](CCCCN)C(=O)N1CCC[C@H]1C(=O)N[C@@H](CO)C(=O)N[C@@H](CO)C(=O)NCC(=O)N[C@@H](C)C(=O)N1CCC[C@H]1C(=O)N1CCC[C@H]1C(=O)N1CCC[C@H]1C(=O)N[C@@H](CO)C(=O)O)C(C)C)[C@@H](C)CC [AT702] (Glutaryl-GTFISDYSIA[Nle]DKIK([AEEA-AEEA-γGlu-C18 diacid])QQDFVEWLLAQKPSSGAPPPS-OH)
cAMP antagonism % inhib (human GIP receptor): 85%
